In the oligonucleotide strings, read from the 5' end, every base follows the letter of its sugar. An asterisk marks phosphorothioate; unmarked linkages are phosphodiester. Other units and linkages are bracketed, terminal groups are in braces. A string of capitals states the bases alone. e = 2'-O-(2-methoxyethyl) (MOE); [5mC] = 5-methylcytosine; d = 2'-deoxy (DNA)
System: human Factor 7 mRNA
Assay: Inhibition of human Factor 7 mRNA by 2-10-2 MOE shortmers in HepB3 cells, electroporation, 1,000 nM
Type: cell-based
Details: electroporation, 1,000 nM oligonucleotide, approximately 24 hours, relative to untreated control cells
How it was run: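 14-mer 2-10-2 2′-MOE gapmers, full phosphorothioate, 5-methylcytidines, electroporated at 1,000 nM into HepB3 cells (20,000/well). After ~24 h, mRNA quantified by real-time RT-PCR, normalized to RIBOGREEN total RNA; percent inhibition relative to untreated cells.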

Substance | % inhibition of human Factor 7 mRNA
435641 (antisense eG*eG*dT*d[5mC]*d[5mC]*d[5mC]*d[5mC]*dA*dT*d[5mC]*dA*d[5mC]*eT*eG) [compound 435641] | 51%
435723 (antisense eG*e[5mC]*d[5mC]*dA*dG*d[5mC]*dA*dG*dA*dT*d[5mC]*dA*e[5mC]*eG) [compound 435723] | 68%
435497 (antisense eG*eG*dG*dA*dG*dA*d[5mC]*d[5mC]*d[5mC]*dT*dG*dG*eT*eG) [compound 435497] | 27%
435805 (antisense eT*eG*dA*dA*dT*dT*dA*d[5mC]*dT*dG*dA*dA*e[5mC]*e[5mC]) [compound 435805] | 0%
435501 (antisense eT*eA*d[5mC]*dT*dG*dG*dG*dA*dG*dA*d[5mC]*d[5mC]*e[5mC]*eT) [compound 435501] | 51%
435735 (antisense eT*eG*dG*dT*dG*dA*dT*dG*d[5mC]*dT*dT*d[5mC]*eT*eG) [compound 435735] | 81%
435823 (antisense eT*eG*dA*dG*dT*d[5mC]*d[5mC]*d[5mC]*dA*dG*dG*d[5mC]*eT*eG) [compound 435823] | 41%
435634 (antisense eT*eG*dA*dA*dA*dT*d[5mC]*dT*d[5mC]*dT*dG*d[5mC]*eA*eG) [compound 435634] | 5%
435819 (antisense eT*eT*dT*dG*dT*d[5mC]*d[5mC]*dA*dG*dT*dA*dA*eG*eA) [compound 435819] | 1%
435486 (antisense eG*eT*d[5mC]*d[5mC]*dT*dG*dG*dG*dT*d[5mC]*dA*dT*e[5mC]*eA) [compound 435486] | 64%
435685 (antisense eA*eG*dG*dA*d[5mC]*d[5mC]*dA*d[5mC]*dG*dG*dG*d[5mC]*eT*eG) [compound 435685] | 40%
435833 (antisense eA*eG*dA*d[5mC]*dA*d[5mC]*dT*dT*dG*dA*dG*dA*eG*e[5mC]) [compound 435833] | 24%
435696 (antisense e[5mC]*eA*dG*dA*dA*d[5mC]*dA*dT*dG*dT*dA*d[5mC]*eT*e[5mC]) [compound 435696] | 10%
435664 (antisense eT*eT*dT*dT*dT*d[5mC]*d[5mC]*dA*d[5mC]*dA*dT*dG*eG*eA) [compound 435664] | 4%
435722 (antisense eT*eG*dG*dG*d[5mC]*dT*dT*dG*dG*d[5mC]*dT*dG*eA*eA) [compound 435722] | 50%
435836 (antisense e[5mC]*eT*dA*dG*dG*dT*d[5mC]*dT*dG*d[5mC]*dA*dG*eG*eG) [compound 435836] | 41%
435734 (antisense eA*eT*dG*d[5mC]*dT*dT*d[5mC]*dT*dG*dA*dA*dT*eT*eG) [compound 435734] | 16%
435768 (antisense eG*e[5mC]*d[5mC]*dT*dG*dG*dA*dT*dG*d[5mC]*dT*dG*eG*eT) [compound 435768] | 75%
435839 (antisense eG*eG*dT*d[5mC]*dA*dG*d[5mC]*dT*dG*dG*dT*d[5mC]*eT*eG) [compound 435839] | 14%
435494 (antisense eA*eG*dA*d[5mC]*d[5mC]*d[5mC]*dT*dG*dG*dT*dG*dT*eA*e[5mC]) [compound 435494] | 47%
435668 (antisense eT*eG*d[5mC]*d[5mC]*dA*dT*dG*dG*dA*d[5mC]*dA*d[5mC]*eT*e[5mC]) [compound 435668] | 75%
435719 (antisense e[5mC]*eA*dG*d[5mC]*d[5mC]*dT*dT*dG*dG*d[5mC]*dT*dT*eT*e[5mC]) [compound 435719] | 50%
435844 (antisense eT*eG*dG*d[5mC]*d[5mC]*dA*dG*dT*dG*dG*d[5mC]*d[5mC]*eT*e[5mC]) [compound 435844] | 30%
435718 (antisense eG*e[5mC]*dT*d[5mC]*dG*d[5mC]*dA*dG*dG*dA*dG*dG*eA*e[5mC]) [compound 435718] | 26%

Substance | % inhibition of human Factor 7 mRNA
435746 (antisense eA*eT*dT*dG*dA*d[5mC]*dA*dA*dG*dG*dG*d[5mC]*eT*eG) [compound 435746] | 32%
435665 (antisense eA*eG*dG*dT*dA*dT*dT*dT*dT*dT*d[5mC]*d[5mC]*eA*e[5mC]) [compound 435665] | 0%
435729 (antisense eA*e[5mC]*dA*dG*d[5mC]*dA*d[5mC]*dA*d[5mC]*dA*dT*dG*eG*eA) [compound 435729] | 30%
435786 (antisense eA*eG*dG*dT*dG*dA*d[5mC]*d[5mC]*d[5mC]*dG*dT*dG*eA*eG) [compound 435786] | 68%
435500 (antisense eA*e[5mC]*dT*dG*dG*dG*dA*dG*dA*d[5mC]*d[5mC]*d[5mC]*eT*eG) [compound 435500] | 49%
435751 (antisense e[5mC]*eT*dT*dG*d[5mC]*d[5mC]*dA*dG*dG*dT*d[5mC]*d[5mC]*eT*e[5mC]) [compound 435751] | 28%
435743 (antisense eG*e[5mC]*d[5mC]*dT*d[5mC]*dA*dA*dA*d[5mC]*dA*dT*d[5mC]*eT*eA) [compound 435743] | 40%
435848 (antisense eT*eG*dG*d[5mC]*d[5mC]*dA*d[5mC]*dT*dG*d[5mC]*d[5mC]*dT*e[5mC]*eA) [compound 435848] | 32%
435842 (antisense eA*eT*dT*dT*d[5mC]*d[5mC]*d[5mC]*dA*dT*dT*dG*dG*e[5mC]*eA) [compound 435842] | 0%
435652 (antisense e[5mC]*eT*dG*dG*dT*d[5mC]*dA*dT*d[5mC]*d[5mC]*dT*dT*eG*eT) [compound 435652] | 48%
435482 (antisense eT*eG*dG*dG*dT*d[5mC]*dA*dT*d[5mC]*dA*dG*d[5mC]*e[5mC]*eG) [compound 435482] | 62%
435691 (antisense e[5mC]*eA*dG*d[5mC]*d[5mC]*dG*d[5mC]*dT*dG*dA*d[5mC]*d[5mC]*eA*eA) [compound 435691] | 25%
435781 (antisense eA*e[5mC]*d[5mC]*dA*d[5mC]*dG*d[5mC]*dG*dG*dT*dG*dG*eT*eG) [compound 435781] | 0%
435755 (antisense eG*eG*dG*dA*d[5mC]*dT*d[5mC]*dA*dG*d[5mC]*dA*dA*eG*eA) [compound 435755] | 0%
435648 (antisense eG*eA*dA*dG*d[5mC]*dA*dG*dA*dT*dA*dT*dA*eG*eG) [compound 435648] | 0%
435813 (antisense eG*eG*dA*dT*dG*d[5mC]*dA*d[5mC]*dA*d[5mC]*d[5mC]*dA*eG*eG) [compound 435813] | 55%
435791 (antisense eA*eT*dG*dA*dG*dA*dA*dA*dT*dG*d[5mC]*dT*eT*eT) [compound 435791] | 0%
435479 (antisense e[5mC]*eA*d[5mC]*dT*d[5mC]*d[5mC]*d[5mC]*d[5mC]*dT*dT*dT*dG*eG*eG) [compound 435479] | 9%
435742 (antisense eA*eT*dG*dT*dG*dA*dG*dG*dG*dT*dT*d[5mC]*eA*eT) [compound 435742] | 11%
435845 (antisense eG*e[5mC]*dT*d[5mC]*dA*dT*dG*dG*d[5mC]*dA*dG*dA*e[5mC]*eA) [compound 435845] | 21%
435635 (antisense e[5mC]*eA*dT*dG*dA*dT*dG*dA*dA*dA*dT*d[5mC]*eT*e[5mC]) [compound 435635] | 0%
435682 (antisense eG*eG*dA*dT*dG*dA*dT*dG*dA*d[5mC]*d[5mC]*dT*eG*e[5mC]) [compound 435682] | 36%
435747 (antisense eA*eT*dA*dT*d[5mC]*dA*dT*dT*dG*dA*d[5mC]*dA*eA*eG) [compound 435747] | 0%
435774 (antisense eG*eT*d[5mC]*d[5mC]*d[5mC]*dA*dG*dG*dG*dA*dA*dG*eG*e[5mC]) [compound 435774] | 17%
